Literature values, collected in paper PMC6499206, “Quantification of Volatile Metabolites Derived From Garlic (Allium sativum) in Human Urine” (Frontiers in Nutrition, 2019).

System: cardiac hypertrophy
Set-up: method as in PMID 28194108
Conditions: rats; by increasing Na+/K+-ATPase; cited from earlier work

| SMILES | effect on cardiac hypertrophy |
| --- | --- |
| C=CCSC [AMS, allyl methyl sulfide] | attenuated cardiac hypertrophy |
| C=CC[S+](C)[O-] (centres unmarked) [AMSO, allyl methyl sulfoxide] | attenuated cardiac hypertrophy |
